# Measured values published in BindingDB's records for doi:10.1021/bi1013479 (University of California Irvine, 2010).
# What was measured:
# Test in all cases: Inhibitory Assay
# [1] = biological target: Nitric oxide synthase, brain (Homo sapiens, UniProt P29475)
# From the text: (§1) Inhibition assay using nitric oxide synthases.
# [2] = biological target: T1, Nitric oxide synthase, endothelial (Homo sapiens, UniProt P29474)
# T1 sequence (P29474 whole entry): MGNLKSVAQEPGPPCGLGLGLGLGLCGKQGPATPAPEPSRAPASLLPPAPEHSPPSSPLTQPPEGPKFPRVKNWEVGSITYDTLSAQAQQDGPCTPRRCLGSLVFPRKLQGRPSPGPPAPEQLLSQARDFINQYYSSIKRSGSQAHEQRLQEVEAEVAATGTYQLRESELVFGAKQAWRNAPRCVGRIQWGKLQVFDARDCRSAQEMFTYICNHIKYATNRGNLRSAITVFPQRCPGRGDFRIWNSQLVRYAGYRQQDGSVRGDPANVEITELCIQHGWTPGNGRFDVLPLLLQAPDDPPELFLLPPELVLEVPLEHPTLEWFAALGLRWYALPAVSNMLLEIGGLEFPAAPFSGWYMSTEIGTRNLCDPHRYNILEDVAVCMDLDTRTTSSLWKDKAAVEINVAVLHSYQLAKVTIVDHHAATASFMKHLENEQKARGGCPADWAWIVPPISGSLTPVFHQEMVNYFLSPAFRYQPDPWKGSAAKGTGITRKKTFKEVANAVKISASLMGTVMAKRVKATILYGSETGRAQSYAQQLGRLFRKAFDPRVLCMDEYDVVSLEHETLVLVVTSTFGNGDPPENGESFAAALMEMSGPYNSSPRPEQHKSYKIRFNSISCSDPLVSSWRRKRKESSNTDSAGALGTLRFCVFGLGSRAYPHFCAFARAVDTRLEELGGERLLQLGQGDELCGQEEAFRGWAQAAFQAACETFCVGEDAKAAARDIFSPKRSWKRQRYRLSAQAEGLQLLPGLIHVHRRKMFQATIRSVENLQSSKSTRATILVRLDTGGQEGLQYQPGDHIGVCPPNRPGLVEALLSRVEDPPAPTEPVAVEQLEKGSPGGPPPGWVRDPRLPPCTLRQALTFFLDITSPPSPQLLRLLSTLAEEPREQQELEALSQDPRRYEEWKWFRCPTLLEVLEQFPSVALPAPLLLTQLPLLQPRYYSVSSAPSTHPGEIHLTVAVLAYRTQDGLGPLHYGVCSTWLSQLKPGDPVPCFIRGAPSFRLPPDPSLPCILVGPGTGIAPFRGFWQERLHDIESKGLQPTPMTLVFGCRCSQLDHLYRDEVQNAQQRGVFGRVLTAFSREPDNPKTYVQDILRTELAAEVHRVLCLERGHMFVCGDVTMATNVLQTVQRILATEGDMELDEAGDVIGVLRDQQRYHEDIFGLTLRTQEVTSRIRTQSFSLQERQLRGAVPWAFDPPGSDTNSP
# From the text: as §1
# [3] = biological target: Nitric oxide synthase, inducible (Homo sapiens, UniProt P35228)
# Chain of Nitric oxide synthase, inducible (P35228 whole entry): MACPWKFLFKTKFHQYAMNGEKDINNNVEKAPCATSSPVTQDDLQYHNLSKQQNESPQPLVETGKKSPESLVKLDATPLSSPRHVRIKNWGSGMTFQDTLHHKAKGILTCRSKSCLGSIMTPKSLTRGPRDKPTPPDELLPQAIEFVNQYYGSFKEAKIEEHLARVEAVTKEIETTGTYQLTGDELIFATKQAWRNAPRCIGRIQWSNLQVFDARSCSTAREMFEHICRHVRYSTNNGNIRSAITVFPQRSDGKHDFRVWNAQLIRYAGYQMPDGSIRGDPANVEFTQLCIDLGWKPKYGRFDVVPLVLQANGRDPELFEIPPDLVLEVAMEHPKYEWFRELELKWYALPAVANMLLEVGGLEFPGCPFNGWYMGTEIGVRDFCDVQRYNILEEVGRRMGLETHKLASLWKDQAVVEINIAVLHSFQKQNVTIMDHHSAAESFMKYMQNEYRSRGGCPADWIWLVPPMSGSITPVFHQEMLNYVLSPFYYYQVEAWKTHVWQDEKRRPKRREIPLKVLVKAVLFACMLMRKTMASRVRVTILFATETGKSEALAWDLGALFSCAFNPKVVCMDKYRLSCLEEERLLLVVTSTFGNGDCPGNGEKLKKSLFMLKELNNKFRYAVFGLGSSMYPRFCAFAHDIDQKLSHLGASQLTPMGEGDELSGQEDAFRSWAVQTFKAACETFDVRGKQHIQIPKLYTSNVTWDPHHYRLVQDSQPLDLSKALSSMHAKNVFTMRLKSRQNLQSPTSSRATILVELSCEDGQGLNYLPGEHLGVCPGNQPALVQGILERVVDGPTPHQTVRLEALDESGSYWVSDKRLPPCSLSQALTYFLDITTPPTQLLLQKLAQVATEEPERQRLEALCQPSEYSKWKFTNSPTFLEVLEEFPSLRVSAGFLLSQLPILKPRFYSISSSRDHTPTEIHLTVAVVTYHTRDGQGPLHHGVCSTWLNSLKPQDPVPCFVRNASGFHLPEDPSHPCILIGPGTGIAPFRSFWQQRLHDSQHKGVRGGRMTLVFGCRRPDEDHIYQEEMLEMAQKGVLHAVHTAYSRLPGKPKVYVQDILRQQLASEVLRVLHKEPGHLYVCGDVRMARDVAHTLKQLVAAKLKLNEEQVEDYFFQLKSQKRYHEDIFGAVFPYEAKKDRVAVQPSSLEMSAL
# From the text: as §1
# Chain of Nitric oxide synthase, brain (P29475 whole entry): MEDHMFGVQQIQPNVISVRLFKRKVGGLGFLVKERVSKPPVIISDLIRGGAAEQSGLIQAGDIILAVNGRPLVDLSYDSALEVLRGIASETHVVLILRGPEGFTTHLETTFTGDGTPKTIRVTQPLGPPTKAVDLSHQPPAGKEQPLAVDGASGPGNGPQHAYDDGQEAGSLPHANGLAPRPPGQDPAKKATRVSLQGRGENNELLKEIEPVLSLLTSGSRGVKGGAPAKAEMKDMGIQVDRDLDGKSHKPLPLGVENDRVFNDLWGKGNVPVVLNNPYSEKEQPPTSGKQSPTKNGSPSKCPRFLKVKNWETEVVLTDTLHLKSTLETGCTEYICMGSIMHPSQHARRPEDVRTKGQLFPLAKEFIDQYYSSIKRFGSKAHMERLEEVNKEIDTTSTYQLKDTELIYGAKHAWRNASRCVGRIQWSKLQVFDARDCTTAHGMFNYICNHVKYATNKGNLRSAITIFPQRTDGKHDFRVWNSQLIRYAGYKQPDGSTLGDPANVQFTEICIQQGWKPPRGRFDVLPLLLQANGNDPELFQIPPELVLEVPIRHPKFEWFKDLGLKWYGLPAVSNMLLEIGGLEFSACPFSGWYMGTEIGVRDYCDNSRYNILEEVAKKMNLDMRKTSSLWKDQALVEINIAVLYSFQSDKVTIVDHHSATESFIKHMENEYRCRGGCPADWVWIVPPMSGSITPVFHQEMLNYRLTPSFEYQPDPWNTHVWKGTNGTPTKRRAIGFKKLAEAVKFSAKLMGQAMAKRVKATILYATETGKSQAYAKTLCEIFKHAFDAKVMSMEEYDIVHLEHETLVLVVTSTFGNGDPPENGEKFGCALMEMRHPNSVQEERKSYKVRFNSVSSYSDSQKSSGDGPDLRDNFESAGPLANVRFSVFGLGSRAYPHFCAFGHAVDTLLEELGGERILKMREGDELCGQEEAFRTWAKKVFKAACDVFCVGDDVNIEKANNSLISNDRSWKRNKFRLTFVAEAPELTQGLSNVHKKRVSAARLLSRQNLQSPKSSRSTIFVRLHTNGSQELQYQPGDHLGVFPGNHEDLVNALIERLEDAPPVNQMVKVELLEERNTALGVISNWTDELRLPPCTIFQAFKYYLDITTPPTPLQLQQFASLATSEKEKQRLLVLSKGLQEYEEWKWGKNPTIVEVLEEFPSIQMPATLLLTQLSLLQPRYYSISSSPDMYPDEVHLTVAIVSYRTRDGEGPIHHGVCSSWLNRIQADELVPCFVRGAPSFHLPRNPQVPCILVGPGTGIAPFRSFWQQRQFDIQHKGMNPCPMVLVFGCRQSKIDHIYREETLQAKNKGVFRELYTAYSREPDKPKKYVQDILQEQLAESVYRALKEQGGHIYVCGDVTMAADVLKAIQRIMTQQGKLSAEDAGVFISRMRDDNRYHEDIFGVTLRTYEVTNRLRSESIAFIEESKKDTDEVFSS
Structure (SMILES),Ki [1] [µM],Ki [2] [µM],Ki [3] [µM]
Cc1cc(N)nc(CCc2cccc(CCc3cc(C)nc(N)c3)n2)c1,0.195,20,12.6
"Cc1cc(N)nc(CCc2cc(N)cc(CCc3cc(C)cc(N)n3)c2)c1 [6,6'-[(5-aminobenzene-1,3-diyl)diethane-2,1-diyl]bis(4-methylpyridin-2-amine)]",0.085,4.95,3.4
Cc1cc(N)nc(CCc2cncc(CCc3cc(C)nc(N)c3)c2)c1 [6-(2-{5-[2-(2-amino-6-methylpyridin-4-yl)ethyl]pyridin-3-yl}ethyl)-4-methylpyridin-2-amine],0.103,16.1,1.91
"Cc1cc(N)nc(CCc2cccc(CCc3cc(C)cc(N)n3)c2)c1 [NOS Inhibitor, 3h]",–,4.2,2.73
